The results in this text go back to ChEMBL document CHEMBL4325903, “N-Substituted aminoquinoline-pyrimidine hybrids: Synthesis, in vitro antimalarial activity evaluation and docking studies” (Eur J Med Chem, 2019).

The term IC50 denotes the concentration at which inhibition is half-maximal.

The source made the active and inactive calls. The calls are words filed in the database; no cut-off is given here.

The nature of data set [1]: Selectivity index, ratio of IC50 for cytotoxicity against African green monkey Vero cells to IC50 for chloroquine-sensitive Plasmodium falciparum D6. It is filed as toxicity, cell-based. The following applies: read-out: Ratio IC50.
The test system of data set [2] is Vero. As to the kind of experiment: Cytotoxicity against African green monkey Vero cells after 48 hrs by neutral red assay. The following applies: chlorocebus sabaeus. In kind it is cell-based.
A short description of data set [3]: Selectivity index, ratio of IC50 for cytotoxicity against African green monkey Vero cells to IC50 for chloroquine-resistant Plasmodium falciparum W2. It is filed as toxicity, cell-based. The following applies: read-out: Ratio IC50.
Data set [4] deals with Plasmodium falciparum. As to the kind of experiment: Antimalarial activity against chloroquine-resistant Plasmodium falciparum W2 infected in RBC after 72 hrs by LDH release assay. It is filed as functional, organism-based. The following applies: W2, 72 h. (In general: LDH in the medium is a marker of cell lysis.)
Data set [5] deals with Plasmodium falciparum. As to the kind of experiment: Antimalarial activity against chloroquine-sensitive Plasmodium falciparum D6 infected in RBC after 72 hrs by LDH release assay. The following applies: D6, 72 h. It is filed as functional, organism-based.
Another data set relates to mu-oxodimeric heme. As to the kind of experiment: Binding affinity to mu-oxodimeric heme assessed as 1:1 up to 20 uM at pH 5.8 by titration method.
Data set [6] is described as follows: Binding affinity to hemin assessed as 1:1 stoichiometry for compound-hemin complex up to 12 uM at pH 5.6 by Job's plot analysis.
A short description of data set [7]: Binding affinity to hemin assessed as 1:1 stoichiometry for compound-hemin complex up to 12 uM at pH 7.4 by Job's plot analysis.
Data set [8] has as its system Vero. As to the kind of experiment: Cytotoxicity against African green monkey Vero cells up to 10 uM after 48 hrs by neutral red assay. In kind it is cell-based. The following applies: chlorocebus sabaeus.
Data set [9] relates to Plasmodium falciparum. Put plainly: Potency index, ratio of chloroquine IC50 to compound IC50 for antimalarial activity against chloroquine-resistant Plasmodium falciparum W2 infected in RBC. It is filed as functional.

On to `Cc1cc(N2CCCCC2)nc(N(CCCNc2ccnc3cc(Cl)ccc23)Cc2cccs2)n1`, for which the figures for the selectivity ratio in [1] and in data set [3] were 161 and 38.9, respectively. Further, the concentration for half-maximal inhibition (IC50) stood at 7200 nM in the data set with Vero [2], 185 nM in the data set on Plasmodium falciparum [4] and 44.6 nM in the data set with Plasmodium falciparum [5].
In the case of `Cc1cc(N(CCNc2ccnc3cc(Cl)ccc23)Cc2ccccn2)nc(N2CCN(C)CC2)n1`, in the data set on mu-oxodimeric heme, the outcome was Active. Further, the results for the Activity (in [6]; in data set [7]; in the data set with Vero [8]) were 0.5 molar ratio, 0.5 molar ratio and “Non-Toxic”, respectively. Besides, half-maximal inhibition with Plasmodium falciparum [4] (IC50) was put at 142 nM.
Take `CCN1CCN(c2cc(C)nc(N(CCCNc3ccnc4cc(Cl)ccc34)Cc3cccs3)n2)CC1`: the figures for the selectivity ratio in data set [1] and in [3] were above 27 and above 46.8, respectively. Also, the “Ratio IC50” value with Plasmodium falciparum [9] is on record as 22. Also, the half-inhibitory concentration (IC50) came out at 18.9 nM with Plasmodium falciparum [4] and 32.8 nM in the data set with Plasmodium falciparum [5]. Moreover, in the data set on Vero [8], the Activity entry is recorded as “Non-Toxic”.
For the compound `Cc1cc(N(CCCNc2ccnc3cc(Cl)ccc23)Cc2cccs2)nc(N2CCOCC2)n1`, the selectivity ratio in data set [1] was 168; in data set [3] it was 22.7. The half-inhibitory concentration (IC50) with Vero [2] was 9300 nM; in the data set on Plasmodium falciparum [4], 409 nM; in the data set on Plasmodium falciparum [5], 55.2 nM.
